In test [1] the target is T1, 20S human immunoproteasome (CT-L activity) (Homo sapiens, UniProt P28062).
T1 construct: purchased Boston Biochem
Put plainly: Inhibition of CT-L activity of the immunoproteasome (Suc-LLVY-AMC fluorogenic substrate). It is filed as biochemical. The following applies: for remaining activity at 5 µM: inhibitor at 5 μM, remaining enzyme activity, read-out: % IP activity (remaining activity of the enzyme); for inhibition of the CT-L activity of the immunoproteasome: 5 µM; for IC50: unit inferred, read-out: IC50 values against the immunoproteasome. The procedure:
(§1) The computationally selected 13 compounds were tested for their inhibitory activity against the CT-L activity of the immunoproteasome. The identified active compounds were also tested for their inhibitory activity against the CT-L activity of the constitutive proteasome. For the initial activity screening, the selected compounds were dissolved in DMSO and used at a concentration of 5 μM. Epoxomicin ([…]), which reached the 100% inhibition, was used as a positive control. 20S human immunoproteasome and constitutive proteasome (Boston Biochem) were 2-fold diluted in an assay buffer (20 mM Tris/Cl, pH 8.0, 0.5 mM EDTA, 0.035% SDS).^17
(§2) Specifically, selected compounds were preincubated with 50 ng/well of the immunoproteasome or constitutive proteasome in a 96-well plate at room temperature for 13 min. 100 μM of Suc-LLVY-AMC, a fluorogenic peptide substrate for the CT-L activity, was then added to the wells. Fluorogenic signals of the free AMC (Ex: 360, Em: 460)^18 were recorded for 90 min. The initial reaction velocities (RFU/min) of each compound were calculated as a percentage of the positive control. All enzyme activity assays were carried out in triplicate.

The target of test [2] is T2, 20S human constitutive proteasome (CT-L activity) (Homo sapiens, UniProt P28074).
T2 construct: purchased Boston Biochem
The test is described as follows: Inhibition of CT-L activity of the constitutive proteasome (Suc-LLVY-AMC fluorogenic substrate). It is filed as biochemical. The following applies: inhibitor at 5 μM; remaining enzyme activity; read-out: % CP activity (remaining activity of the enzyme). Here is the method:
as §1, §2

Where a SMILES comes first, the peptide text is derived from it.

Broadly, the remaining activity is the signal under treatment as a percentage of the control signal. For orientation: IC50 means the concentration that inhibits the measured activity by half. As a reminder, the inhibition is the drop in the measured response relative to a control, in per cent.

With `COc1ccc(-c2cc(C(=O)N[C@H](CCC(=O)OC3CCCCC3)C(=O)NCCc3ccncc3)c3ccccc3n2)cc1C` [Compound 11], the remaining activity at 5 µM in test [1] and in test [2] was 80% each time.

In the case of `N=C(N)NCCC[C@@H]1NC(=O)[C@H](Cc2ccccc2)NC(=O)[C@@H](Cc2ccc(O)cc2)NC(=O)CNC(=O)[C@@H](Cc2c[nH]c3ccccc23)NC1=O` [Compound 5] (HELM PEPTIDE1{F.R.[dW].G.[dY]}$PEPTIDE1,PEPTIDE1,1:R1-5:R2$$$V2.0), the remaining activity at 5 µM in test [1] is 81%; in test [2], 82%.

On to `CCN(CC)CCNC(=O)[C@H](Cc1ccc(OCc2ccccc2)cc1)NC(=O)CCC(=O)c1ccccc1` [Compound 14], for which the figures for the remaining activity at 5 µM in test [1] and in test [2] were 70% and 76%, respectively.

For the compound `CCOc1ccc2[nH]c3c(c2c1)CC(C(=O)NCC1CCCCC1)N[C@@H]3c1ccc(O)c([N+](=O)[O-])c1` (stereo partly drawn) [Compound 8], the remaining activity at 5 µM in test [1] was 90%; in test [2], 106%.

With `O=C(CC[C@H](NC(=O)c1cc(-c2ccoc2)nc2ccccc12)C(=O)NCc1cc(F)ccc1F)OC1CCCCC1` [Compound 15], the remaining activity at 5 µM in test [1] worked out at 74%; in test [2], 80%.

As to `Cc1ccc(-c2cc(C(=O)NC[C@@H]3CCCO3)c3cc(CNS(=O)(=O)c4cccc(Cl)c4)ccc3n2)o1` [Compound 1], the “inhibition of the CT-L activity of the immunoproteasome” value in test [1] (compound at 5 μM, % inhibition) was found to be 85%. In test [1], the remaining activity at 5 µM turned out to be 15% and the IC50 came out at 1.7 µM. In addition, the remaining activity at 5 µM in test [2] is 80%.

Regarding `CC[C@@H](O)CNC(=O)C[C@@H]1CCN(Cc2ccc(C)s2)C[C@@H]1[C@H]1CC(c2ccccc2OC)=NO1` [Compound 12], the values for the remaining activity at 5 µM in test [1] and in test [2] were 69% and 72%, respectively.

Consider `O=C1CN(/N=C/c2ccc(-c3ccc(Cl)cc3)o2)C(=O)N1CCCCN1CCN(C[C@@H](O)c2ccccc2)CC1` [Compound 18], for which the remaining activity at 5 µM came out at 75% in test [1] and 84% in test [2].

As for `O=C(C[C@@H]1CCN(CC2CC2)C[C@@H]1[C@H]1CC(c2ccccc2Cl)=NO1)NCCc1ccccn1` [Compound 9], the remaining activity at 5 µM is 87% in test [1] and 86% in test [2].

For `COc1ccccc1C(=O)N/C(=C/c1ccc(Br)cc1)C(=O)Nc1ccc(S(=O)(=O)/N=c2\[nH]ccs2)cc1` [Compound 13], the remaining activity at 5 µM is 91% in test [1] and 88% in test [2].

In the case of `CCN1CCN(CCCN2C(=O)C3[C@H](C(=O)Nc4cc(C)cc(C)c4)[C@@H]4C=C[C@]3(O4)[C@H]2C(=O)N[C@@H]2CCC[C@H](C)[C@H]2C)CC1` (stereo partly drawn) [Compound 10], the remaining activity at 5 µM was 82% in test [1] and 85% in test [2].

Consider `CCCCc1ccc2nc(-c3ccc(OC)cc3)cc(C(=O)NC[C@@H](C)C(=O)N3CCC[C@@H]3CO)c2c1` [Compound 4], for which the remaining activity at 5 µM in test [1] was determined as 79%; in test [2] it was 98%.

With `NC(=O)CC[C@H](NC(=O)[C@H](Cc1cnc[nH]1)NC(=O)OCC1c2ccccc2-c2ccccc21)C(=O)N1CCC[C@H]1C(=O)O` [Compound 7] (HELM PEPTIDE1{[O=C(OCC1c2ccccc2-c2ccccc21)[*:2]].H.Q.P}$$$$V2.0), the remaining activity at 5 µM stood at 65% in test [1] and 76% in test [2].

Consider `C=C(CCCc1ccccc1)N[C@@H](Cc1ccc(Cl)cc1)C(=O)N[C@H](Cc1ccccc1)C(=O)N[C@H](CCCNC(=N)N)C(=O)N[C@@H](Cc1c[nH]c2ccccc12)C(N)=O` [Compound 17], for which the remaining activity at 5 µM in test [1] worked out at 42%; in test [2], 41%.

Turning to `CC[C@H](C)[C@H](NC(=O)[C@H]([C@@H](C)CC)N(C)C(C)=O)C(=O)N[C@H](C(=O)N[C@@H](CC(C)C)C(=O)[C@@]1(C)CO1)[C@@H](C)O` [Epoxomicin, reference compound], in test [1] (Epoxomicin at 1 tM (so in the source), positive control), the “inhibition by positive control” value stood at 100%.

`Cc1ccc(OS(=O)(=O)c2cccc(C(F)(F)F)c2)c(-c2cc(-c3ccccc3)n(CCN[C@@H]3CCNC3)n2)c1` [Compound 16]: the figures for the remaining activity at 5 µM in test [1] and in test [2] were 42% and 50%, respectively.

`Cc1ccc(CSC[C@@H](NC(=O)c2cc(-c3ccccc3)nc3ccccc23)C(=O)NCCCN2CCCC2=O)cc1` [Compound 3]: the “inhibition of the CT-L activity of the immunoproteasome” value in test [1] (compound at 5 μM, % inhibition) worked out at 62%. Also, in test [1], the remaining activity at 5 µM worked out at 38% and the IC50 was 4.9 µM. Further, the remaining activity at 5 µM in test [2] turned out to be 85%.

Take `CC[C@H](C(=O)C(=O)NCCCN1CCOCC1)N1CC(C)C[C@@H](NC(=O)OCc2ccccc2)C1=O` (stereo partly drawn) [Compound 6]: the remaining activity at 5 µM in test [1] is 86%; in test [2], 94%.

In the case of `Cc1cccc(Nc2ccccc2C(=O)N[C@H](CC[S@+](C)[O-])C(=O)N[C@H](C)c2ccc(F)cc2)c1C` [Compound 19], the remaining activity at 5 µM in test [1] amounted to 69%; in test [2], 67%.

In turn, `CCC[C@H]1C[C@H](C(=O)N[C@@H]([C@@H]2O[C@H](SC)[C@@H](O)[C@@H](O)[C@@H]2O)[C@@H](C)O)[N@@H+](C)C1` [Compound 2] gave an inhibition at 5 µM in test [1] (compound at 5 μM, % inhibition) of 36 to 85%. In addition, in test [1], the remaining activity at 5 µM stood at 64% and the IC50 is 22 µM. Further, the remaining activity at 5 µM in test [2] amounted to 98%.

Source of the values: patent US9586946B2, “Selective immunoproteasome inhibitors with non-peptide scaffolds” (University of Kentucky Research Foundation, priority 2015, dated 2017).
